PMC11435058, “Synthesis of New Thiazole-Privileged Chalcones as Tubulin Polymerization Inhibitors with Potential Anticancer Activities” (Pharmaceuticals, 2024)

Columns and labels:
SNB-19 = assay: cells; settings: Homo sapiens
RPMI-8226 = assay: NCI-60 anticancer screen (SRB; single dose and five doses); settings: Homo sapiens
SR = assay: as above; settings: Homo sapiens
EKVX = assay: as above; settings: Homo sapiens
HOP-62 = assay: as above; settings: Homo sapiens
NCI-H23 = assay: as above; settings: Homo sapiens
HCC-2998 = assay: as above; settings: Homo sapiens, HCC 2998, 48 h, read-out: Growth Percentage
HCT-116 = assay: as above; settings: Homo sapiens
HT29 = assay: as above; settings: Homo sapiens
KM12 = assay: as above; settings: Homo sapiens
SF-295 = assay: as above; settings: Homo sapiens
SF-539 = assay: as above; settings: Homo sapiens
LOX IMVI = assay: as above; settings: Homo sapiens
MDA-MB-435 = assay: as above; settings: Homo sapiens
SK-MEL-5 = assay: as above; settings: Homo sapiens
[1] = 48 h, read-out: Growth Percentage

Q: Which GI50 (SNB-19; SNB-19) does the source give for `Cc1[nH]c(=S)sc1C(=O)/C=C/c1ccc(Cl)cc1` [2f, (E)-3-(4-Chlorophenyl)-1-(4-Methyl-2-Thioxo-2,3-Dihydrothiazol-5-yl)Prop-2-En-1-One] here?
A: 12 µM

Q: What about the IC50 (SNB-19; SNB-19) of the same molecule?
A: 22.4 µM

Q: What about the activity at 10 µM (SNB-19; SNB-19, 48 h, read-out: Growth Percentage) of the same molecule?
A: 15.8%

Q: What about the CC50 (SNB-19; SNB-19, read-out: LC50) of the same molecule?
A: 50.1 µM

Q: What about the IC (TGI) (SNB-19; SNB-19, read-out: TGI) of the same molecule?
A: 24.6 µM

Q: What about the GI50 (RPMI-8226; RPMI-8226) of the same molecule?
A: 2.4 µM

Q: What about the activity at 10 µM (RPMI-8226; RPMI-8226, 48 h, read-out: Growth Percentage) of the same molecule?
A: 13.8%

Q: And the IC50 (RPMI-8226; RPMI-8226, RPMI-8226, five doses)?
A: 2.4 µM

Q: And the IC50 (RPMI-8226; RPMI-8226, five-dose, Leukemia RPMI-8226)?
A: 4.68 µM

Q: And the CC50 (RPMI-8226; RPMI-8226, read-out: LC50)?
A: > 100 µM

Q: What about the IC (TGI) (RPMI-8226; RPMI-8226, read-out: TGI) of the same molecule?
A: 8.32 µM

Q: And the GI50 (SR)?
A: 3.55 µM

Q: And the IC50 (SR)?
A: 5.37 µM

Q: What about the CC50 (SR; read-out: LC50) of the same molecule?
A: > 100 µM

Q: And the IC (TGI) (SR; read-out: TGI)?
A: 56.2 µM

Q: And the GI50 (EKVX)?
A: 12.9 µM

Q: And the IC50 (EKVX)?
A: 24 µM

Q: What about the activity at 10 µM (EKVX; [1]) of the same molecule?
A: 41%

Q: And the CC50 (EKVX; read-out: LC50)?
A: 52.5 µM

Q: And the IC (TGI) (EKVX; read-out: TGI)?
A: 26.3 µM

Q: And the GI50 (HOP-62; HOP-62)?
A: 5.37 µM

Q: What about the IC50 (HOP-62; HOP-62) of the same molecule?
A: 12 µM

Q: What about the activity at 10 µM (HOP-62; HOP-62, 48 h, read-out: Growth Percentage) of the same molecule?
A: -2.73%

Q: And the CC50 (HOP-62; HOP-62, read-out: LC50)?
A: 72.4 µM

Q: What about the IC (TGI) (HOP-62; HOP-62, read-out: TGI) of the same molecule?
A: 22.9 µM

Q: What about the GI50 (NCI-H23; NCI-H23) of the same molecule?
A: 14.8 µM

Q: And the IC50 (NCI-H23; NCI-H23)?
A: 26.9 µM

Q: And the activity at 10 µM (NCI-H23; NCI-H23, 48 h, read-out: Growth Percentage)?
A: 36.4%

Q: What about the CC50 (NCI-H23; NCI-H23, read-out: LC50) of the same molecule?
A: 58.9 µM

Q: What about the IC (TGI) (NCI-H23; NCI-H23, read-out: TGI) of the same molecule?
A: 29.5 µM

Q: And the activity at 10 µM (HCC-2998)?
A: -21.3%

Q: And the GI50 (HCT-116; HCT-116)?
A: 6.61 µM

Q: And the IC50 (HCT-116; HCT-116)?
A: 7.94 µM

Q: What about the activity at 10 µM (HCT-116; HCT-116, 48 h, read-out: Growth Percentage) of the same molecule?
A: 6.98%

Q: What about the CC50 (HCT-116; HCT-116, read-out: LC50) of the same molecule?
A: 74.1 µM

Q: And the IC (TGI) (HCT-116; HCT-116, read-out: TGI)?
A: 24.6 µM

Q: What about the GI50 (HT29; HT-29) of the same molecule?
A: 6.76 µM

Q: What about the IC50 (HT29; HT-29) of the same molecule?
A: 9.55 µM

Q: And the activity at 10 µM (HT29; HT-29, 48 h, read-out: Growth Percentage)?
A: 31.2%

Q: What about the CC50 (HT29; HT-29, read-out: LC50) of the same molecule?
A: 53.7 µM

Q: And the IC (TGI) (HT29; HT-29, read-out: TGI)?
A: 20.9 µM

Q: And the GI50 (KM12; KM12)?
A: 4.17 µM

Q: And the IC50 (KM12; KM12)?
A: 8.13 µM

Q: What about the activity at 10 µM (KM12; KM12, 48 h, read-out: Growth Percentage) of the same molecule?
A: 6.77%

Q: And the CC50 (KM12; KM12, read-out: LC50)?
A: 45.7 µM

Q: What about the IC (TGI) (KM12; KM12, read-out: TGI) of the same molecule?
A: 16.6 µM

Q: What about the GI50 (SF-295; SF-295) of the same molecule?
A: 15.8 µM

Q: What about the IC50 (SF-295; SF-295) of the same molecule?
A: 28.8 µM

Q: And the activity at 10 µM (SF-295; SF-295, 48 h, read-out: Growth Percentage)?
A: 42.6%

Q: And the CC50 (SF-295; SF-295, read-out: LC50)?
A: 55 µM

Q: And the IC (TGI) (SF-295; SF-295, read-out: TGI)?
A: 29.5 µM

Q: And the GI50 (SF-539; SF-539)?
A: 6.92 µM

Q: What about the IC50 (SF-539; SF-539) of the same molecule?
A: 16.2 µM

Q: And the activity at 10 µM (SF-539; SF-539, 48 h, read-out: Growth Percentage)?
A: -30.4%

Q: And the IC (TGI) (SF-539; SF-539, read-out: TGI)?
A: 20.4 µM

Q: What about the GI50 (LOX IMVI) of the same molecule?
A: 3.39 µM

Q: And the IC50 (LOX IMVI)?
A: 4.47 µM

Q: And the activity at 10 µM (LOX IMVI; [1])?
A: -48.1%

Q: What about the CC50 (LOX IMVI; read-out: LC50) of the same molecule?
A: 38 µM

Q: What about the IC (TGI) (LOX IMVI; read-out: TGI) of the same molecule?
A: 12 µM

Q: And the GI50 (MDA-MB-435; MDA-MB-435)?
A: 5.5 µM

Q: And the IC50 (MDA-MB-435; MDA-MB-435)?
A: 11 µM

Q: And the activity at 10 µM (MDA-MB-435; MDA-MB-435, 48 h, read-out: Growth Percentage)?
A: 22.5%

Q: What about the CC50 (MDA-MB-435; MDA-MB-435, read-out: LC50) of the same molecule?
A: 49 µM

Q: What about the IC (TGI) (MDA-MB-435; MDA-MB-435, read-out: TGI) of the same molecule?
A: 19.1 µM

Q: And the GI50 (SK-MEL-5; SK-MEL-5)?
A: 11.2 µM

Q: What about the IC50 (SK-MEL-5; SK-MEL-5) of the same molecule?
A: 20.4 µM

Q: What about the activity at 10 µM (SK-MEL-5; SK-MEL-5, 48 h, read-out: Growth Percentage) of the same molecule?
A: 28%

Q: And the CC50 (SK-MEL-5; SK-MEL-5, read-out: LC50)?
A: 49 µM
